A short description of data set [1]: Cmax after oral administration at 20 mpk in rats. The class given is ADME, organism-based. Further details: dose 20 mpk, route oral. The conditions noted are these: rat, in vivo, 20 mg/kg.
The target in data set [2] is T1, Interstitial collagenase (Homo sapiens) (UniProt P03956).
T1 sequence (whole entry): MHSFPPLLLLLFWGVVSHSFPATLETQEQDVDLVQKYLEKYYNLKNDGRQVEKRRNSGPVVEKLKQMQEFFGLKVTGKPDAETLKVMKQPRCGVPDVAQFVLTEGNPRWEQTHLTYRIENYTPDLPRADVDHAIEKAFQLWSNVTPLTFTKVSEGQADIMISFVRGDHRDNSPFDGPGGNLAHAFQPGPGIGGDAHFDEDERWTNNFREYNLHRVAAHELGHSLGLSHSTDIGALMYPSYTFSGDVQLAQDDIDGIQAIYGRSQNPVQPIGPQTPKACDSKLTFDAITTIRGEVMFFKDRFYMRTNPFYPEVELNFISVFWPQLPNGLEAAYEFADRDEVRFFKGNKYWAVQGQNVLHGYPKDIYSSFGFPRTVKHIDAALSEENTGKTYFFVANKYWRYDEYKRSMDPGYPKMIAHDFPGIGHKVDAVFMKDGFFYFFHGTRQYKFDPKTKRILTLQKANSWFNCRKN
The data set is described as follows: Inhibitory activity against human Matrix metalloprotease-1.

Data set [3] addresses 72 kDa type IV collagenase (Homo sapiens) (UniProt P08253). In words: Inhibitory concentration against Matrix metalloprotease-2.
Data set [4] can be described thus: Oral bioavailability in rat. The class given is ADME, organism-based. The conditions noted are these: in vivo, read-out: BA.
Data set [5] is described as follows: Half life period after intravenous administration at 20 mpk in rats. The class given is ADME, organism-based. The settings on record: rat, in vivo, 20 mg/kg.

SMILES strings stand for the structures. A value given as a limit tells only on which side of the number the result lay.

72 kDa type IV collagenase (Homo sapiens), sequence (P08253 110-660 limits assumed): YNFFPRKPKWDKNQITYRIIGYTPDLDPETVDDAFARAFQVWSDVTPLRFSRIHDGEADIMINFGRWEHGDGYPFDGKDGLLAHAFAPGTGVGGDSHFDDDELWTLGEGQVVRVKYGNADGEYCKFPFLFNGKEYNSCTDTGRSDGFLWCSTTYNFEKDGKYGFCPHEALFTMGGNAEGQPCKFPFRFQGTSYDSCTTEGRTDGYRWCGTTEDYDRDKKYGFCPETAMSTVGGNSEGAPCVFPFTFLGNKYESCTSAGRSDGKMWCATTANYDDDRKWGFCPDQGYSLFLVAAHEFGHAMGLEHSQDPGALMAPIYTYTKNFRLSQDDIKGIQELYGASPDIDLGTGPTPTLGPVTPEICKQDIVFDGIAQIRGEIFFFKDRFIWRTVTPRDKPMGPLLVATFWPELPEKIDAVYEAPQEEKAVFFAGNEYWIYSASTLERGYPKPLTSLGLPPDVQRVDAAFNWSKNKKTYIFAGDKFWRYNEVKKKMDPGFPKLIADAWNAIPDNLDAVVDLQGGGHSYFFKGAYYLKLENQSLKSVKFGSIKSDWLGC

`COCCOc1cccc(S(=O)(=O)N2CCC(Oc3ccc(C(F)(F)F)cc3)CC2)c1C(=O)NO` registered a Cmax in data set [1] of 2670 ng/mL. The Activity in data set [2] was over 10 µM; in data set [3], 1 nM.
Take `O=C(NO)c1c(OC2CCOCC2)cccc1S(=O)(=O)N1CCC(Oc2ccc(C(F)(F)F)cc2)CC1`: the Activity in data set [2] was over 10 µM; in data set [3] it was 1.1 nM.
The compound `O=C(NO)c1ccccc1S(=O)(=O)N1CCC(Oc2ccc(OC(F)(F)F)cc2)CC1` registered a Cmax in data set [1] of 670 ng/mL. Besides, the results for the Activity in data set [2] and in data set [3] were over 10 µM and 2.2 nM, respectively. Further, in data set [4], the bioavailability came to 39%.
In the case of `COc1ccccc1OC1CCN(S(=O)(=O)c2ccc(OC)c(OC)c2C(=O)NO)CC1`, the Activity was over 10 µM in data set [2] and 330 nM in data set [3].
Compound `O=C(NO)c1c(S(=O)(=O)N2CCC(Oc3ccc(C(F)(F)F)cc3)CC2)ccc2c1OCCO2` displayed a Cmax in data set [1] of 3200 ng/mL. The Activity in data set [2] is over 10 µM; in data set [3], 1.4 nM.
For the compound `COc1ccc(OC)c(S(=O)(=O)N2CCC(Oc3ccc(C(F)(F)F)cc3)CC2)c1C(=O)NO`, the figures for the Activity in data set [2] and in data set [3] were over 10 µM and 21 nM, respectively.
Take `O=C(NO)c1ccccc1S(=O)(=O)N1CCC(Oc2ccc(C(F)(F)F)cc2)CC1`: the peak level in data set [1] (Cmax) was 1230 ng/mL. This compound also came in with an Activity in data set [2] of over 10 µM. In addition, the bioavailability in data set [4] came to 23%. This compound also showed a half-life in data set [5] of 0.8 h.
On to `O=C(NO)c1c(S(=O)(=O)N2CCC(OCc3ccc4c(c3)OCO4)CC2)ccc2c1OCO2`, for which the Activity is over 10 µM in data set [2] and 1.1 nM in data set [3].
`O=C(NO)c1c(S(=O)(=O)N2CCC(Oc3ccc(C(F)(F)F)cc3)CC2)ccc2c1OCO2` yielded a Cmax in data set [1] of 3060 ng/mL. Moreover, the Activity was over 10 µM in data set [2] and 3 nM in data set [3].
In the case of `CNC(=O)[C@@H](NC(=O)C(CC(C)C)C(O)C(=O)NO)C(C)(C)C` (single isomer, unassigned), in data set [1], the concentration peaked (Cmax) at 2400 ng/mL. Moreover, in data set [4], the bioavailability came to 9%. The half-life in data set [5] was 0.9 h.
For the compound `COc1ccc(S(=O)(=O)N2CCC(Oc3ccccc3)CC2)c(C(=O)NO)c1OC`, the Activity in data set [2] was over 10 µM; in data set [3], 1.1 nM.
For the compound `O=C(NO)c1c(Cl)cccc1S(=O)(=O)N1CCC(Oc2ccc(C(F)(F)F)cc2)CC1`, in data set [1], the Cmax amounted to 1310 ng/mL. The Activity in data set [2] is over 10 µM; in data set [3], 1.9 nM.
The compound `O=C(NO)C1(CS(=O)(=O)c2ccc(Oc3ccc(Cl)cc3)cc2)CCOCC1` [CTS-1027] had a Cmax in data set [1] of 1370 ng/mL. The Activity in data set [2] came out at 0.8 µM; in data set [3], 0.4 nM. Also, in data set [4], the bioavailability turned out to be 22%. The compound further gave a half-life in data set [5] of 1.5 h.
For `COc1ccc(S(=O)(=O)N2CCC(Oc3ccc(Cl)cc3)CC2)c(C(=O)NO)c1OC`, the results for the Activity in data set [2] and in data set [3] were over 10 µM and 0.3 nM, respectively.
As to `COc1ccc(S(=O)(=O)N2CCC(Oc3ccc(OC(F)(F)F)cc3)CC2)c(C(=O)NO)c1OC`, the Cmax in data set [1] came to 5160 ng/mL. In addition, the values for the Activity in data set [2] and in data set [3] were over 10 µM and 0.8 nM, respectively. The bioavailability in data set [4] is 31%. In data set [5], this compound gave a half-life of 1.5 h.
With `O=C(NO)c1c(F)cccc1S(=O)(=O)N1CCC(Oc2ccc(C(F)(F)F)cc2)CC1`, the figures for the Activity in data set [2] and in data set [3] were over 10 µM and 3.3 nM, respectively.
With `COc1cccc(OC2CCN(S(=O)(=O)c3ccc(OC)c(OC)c3C(=O)NO)CC2)c1`, the Activity in data set [2] is over 10 µM; in data set [3], 12 nM.
For the compound `COc1ccc(OC2CCN(S(=O)(=O)c3ccc(OC)c(OC)c3C(=O)NO)CC2)cc1`, the figures for the Activity in data set [2] and in data set [3] were over 10 µM and 1.8 nM, respectively.
`CC1(C)SCCN(S(=O)(=O)c2ccc(Oc3ccncc3)cc2)[C@H]1C(=O)NO` [PRINOMASTAT] gave a Cmax in data set [1] of 2060 ng/mL. Besides, the bioavailability in data set [4] worked out at 28%. Moreover, the half-life in data set [5] was 1.6 h.
`COc1ccc(S(=O)(=O)N2CCC(Oc3ccc(C(F)(F)F)cc3)CC2)c(C(=O)NO)c1OC` returned a Cmax in data set [1] of 22500 ng/mL. In addition, the Activity in data set [2] was over 10 µM; in data set [3] it was 2.4 nM. Also, the bioavailability in data set [4] turned out to be 32%. This compound gave a half-life in data set [5] of 1.9 h.
In turn, `COc1ccc(S(=O)(=O)N2CCC(OCc3ccc4c(c3)OCO4)CC2)c(C(=O)NO)c1OC` gave a Cmax in data set [1] of 9200 ng/mL. Moreover, the figures for the Activity in data set [2] and in data set [3] were over 10 µM and 1 nM, respectively.

The values above are taken from ChEMBL document CHEMBL1134722, “Selective, orally active MMP inhibitors with an aryl backbone” (Bioorg Med Chem Lett, 2001).
